These results are taken from patent publication US20230075822A1, “USE OF CASTALAGIN OR ANALOGS THEREOF FOR ANTI-CANCER EFFICACY AND TO INCREASE THE RESPONSE TO IMMUNE CHECKPOINT INHIBITORS” (THE ROYAL INSTITUTION FOR THE ADVANCEMENT OF …, priority 2020, published 2023).

The subject of assay [1] is CD8^+/Foxp3^+CD4^+ T cells. The experiment in a line: Immunofluorescence staining (CD4, CD8, Foxp3) of MCA-205 tumors. Format: in vivo, C57BL/6 mice. The note with it: castalagin/IsoPD-1 relative to Water/IsoPD-1. The source says: FIG. 10B Representative images for the CD4, CD8 and Foxp3 immunofluorescence staining of tumors in both water/ISoPD-1 and castalagin/IsoPD-1 groups. FIG. 10C Box plot for the ratio CD8^+/Foxp3^+CD4^+ in tumor in (n=8/group) obtained with immunofluorescence staining. *p<0.05. Immunofluorescence staining. Murine tumors preserved in optimal cutting temperature (OCT) compound were cut (5 μm-thick sections) and adhered to microscope slides and stored at −80C°. Upon the start of the experiment, slides were air dried and washed with cold acetone. To prevent non-specific binding to biotin, the Endogenous Avidin Biotin Blocking kit (ThermoFisher) was used. Additionally, tissues were incubated with 10% donkey serum in order to reduce background staining. Primary antibodies used are anti-CD4, anti-CD8, anti-Foxp3. Donkey anti-goat and donkey anti-rat conjugated to AF-488 were used as secondary antibodies and slides were incubated with Cy3-Streptavidin to detect biotinylated antibodies. Nuclei were visualized by counterstaining with DAPI (ThermoFisher). Images were generated using the whole slide scanner Olympus BX61VS (20× 0.75NA objective with a resolution of […]). The images were analysed using Visiomorph software (Visiopharm).

Assay [2] deals with CD8^+ T cells. The experiment in a line: Flow cytometry immune profiling of tumor and spleen, E0771 tumor model. Format: in vivo, C57BL/6 mice. The following applies: αPD-1 with or without treatment. How it is done: FIGS. 7A-C are graphs showing the results of immune cell profiling by flow cytometry in the murine MCA-205 (FIGS. 7A-B) or E0771 (FIG. 7C) tumor model treated with anti-PD-1 and/or CC. The tumors and the spleens were harvested 9 days or 19 days after the first injection of anti-PD-1 mAb into mice bearing MCA-205 or E0771 tumors, respectively. Excised tumors were cut into small pieces and digested in RPMI medium containing Liberase 25 μg/mL (Roche) and DNase1 at 150 Ul/mL (Roche) for 30 minutes at 37° C. and then crushed and filtered twice using 100 and 70 μm cell strainers (Becton & Dickinson). Spleens were crushed in RPMI medium and subsequently filtered through a 100 μm cell strainer. Two million tumor cells or splenocytes were pre-incubated with purified anti-mouse CD16/CD32 (clone 93; eBioscience) for 30 minutes at 4° C., before membrane staining (CD45, CD3, CD4, CD8, PD1, PDL1, ICOS, CXCR3, CCR9, CD45RB, CD62L, CD44). For intracellular staining, the Foxp3 staining kit (eBioscience) was used. Dead cells were excluded using the Live/Dead Fixable aqua blue dead cell stain kit (Life Technologies). […] FIG. 7C is a graph showing the activation of intratumoral CD8^+ T cells (as assessed by MFI of ICOS^+CD8^+ T cells by flow cytometry) in TILs in the E0771 tumor model post-treatment with CC +/-αPD-1. […]
On the technique in general: In flow cytometry, cells or beads pass a laser one at a time.

With `O=C1OC[C@H]2OC(=O)c3cc(O)c(O)c(O)c3-c3c(O)c(O)c(O)c4c3C(=O)O[C@H]([C@H]3OC(=O)c5c-4c(O)c(O)c(O)c5[C@@H]3O)[C@@H]2OC(=O)c2cc(O)c(O)c(O)c2-c2c1cc(O)c(O)c2O` [castalagin, Castalagin], in assay [1], the “ratio CD8^+/Foxp3^+ CD4^+ in tumor (immunofluorescence)” value is “increase of the ratio CD8^+/Foxp3^+ CD4^+”. Further, the “frequency of memory CD8^+ T cells (CD44^HighCD62L^−CD8^+)” value in assay [2] (splenocytes) and in assay [2] (tumor microenvironment) was “increase in frequency of memory CD8^+ T cells” each time.
